Assay results taken from paper PMC6154719 (Molecules : A Journal of Synthetic Chemistry and Natural …, 2017).

What was measured:
Type in all cases: in vitro ADME
[1] = tested on: CYP2B/3A; assay: CYP2B/3A (BROD activity, benzyloxyresorufin O-debenzylation) in human liver microsomes; conditions: for Specific Activity, CYP2B/3A (BROD activity): in the presence of 100 µM sesquiterpene, control 1.22 ± 0.05; for inhibition at 5 µM: liver microsomes, human, 5 µM inhibitor; for inhibition at 5 µM / IC50: probe benzyloxyresorufin
Method: (§1) Enzyme activities were assayed in human and rat liver cytosolic and microsomal fractions. The enzyme assays (each performed in 4–8 replicates) were repeated three times (HPLC measurement of CYP activities was repeated only twice, Table 3). Inhibition studies were carried out by incubation of specific substrates in the presence of sesquiterpenes (in the range 0–100 µM).
(§2) Enzyme activities of individual CYP forms were measured according to established protocols. The following microsomal CYP activities were tested: CYP2A6, coumarin 7-hydroxylation; CYP2B6, 7-ethoxy-4-(trifluoromethyl)coumarin 7-deethylation, CYP2C9, diclofenac 4′-hydroxylation, CYP2C19 assay, S-mephenytoin 4′-hydroxylation, CYP2D6 on bufuralol 1′-hydroxylation, CYP2E1, chlorzoxazone 6-hydroxylation and CYP3A4, testosterone 6β-hydroxylation, and midazolam 1′-hydroxylation. Activities were measured using the Prominence HPLC system (Shimadzu, Kyoto, Japan), equipped with a LiChroCART 250-4 LiChrospher 100 RP-18 column or Chromolith®HighResolution RP-18 end-capped column (Merck, Darmstadt, Germany) and UV or fluorescence detection, according to the cited literature. Further incubation details are described either in the corresponding references, as well as in the papers from this laboratory e.g., [42, 43, 44]. CYP1A2, 7-ethoxyresorufin O-deethylation, and CYP3A4/2B6 (human), CYP2B1 (rat), benzyloxyresorufin O-debenzylation were measured using the microplate reader Tecan Infinite M200 (Tecan Group; Mannedorf, Switzerland).
(§3) Sesquiterpenes CNER, TNER and FAR, non-volatile liquids, were pipetted, and proper concentration was calculated according to density. All compounds were dissolved in DMSO. The final solvent concentration in the inhibition assays was 1%, which had no effect on the enzyme activity (data not shown). Non-enzymatic interference of sesquiterpenes with some compounds in the reaction mixtures (e.g., fluorescence enhancing or quenching) was considered and excluded. All experiments were performed in three replicates, if not stated otherwise.
(§4) CNER, TNER and FAR at a fixed concentration of 100 µM were screened for inhibition of cytosolic AKR1A1, AKR1C, CBR1, NQO1, SULT, and GST, and microsomal CYPs and UGT. The degree of inhibition caused by sesquiterpenes was compared with non-inhibited control reactions, which contained solvent without sesquiterpenes.
(§5) The concentration of sesquiterpenes required for 50% inhibition of enzyme activity, the IC50 value, was determined. Their final concentrations in the reaction mixture were proposed to cover the entire inhibitory range of these compounds (1–100 µM). The IC50 values for each sesquiterpene were determined by plotting sigmoidal dose response curves of specific enzyme activity vs. logarithm of sesquiterpene concentration using GraphPad Prism version 6.07 for Windows (GraphPad Software Inc., La Jolla, CA, USA).
(§6) The kinetic inactivation study of the CYP1A2 (EROD activity) and CYP2B/3A (BROD activity), both in rat and human, with TNER, was performed to find out the mechanism of enzyme inhibition by this sesquiterpene. Mechanism of EROD and BROD inhibition was tested at the final ethoxyresorufin or benzyloxyresorufin concentrations 0.5–5.0 µM. The concentration of TNER was 5.0 µM.
(§7) Experimental data were fitted to the Michaelis-Menten equation, basic kinetic parameters were determined using the program GraphPad Prism version 6.07 for Windows. The type of inhibition was estimated using a Lineweaver-Burk (double-reciprocal) plot.

[2] = target: T1, CYP1A2 (Rattus norvegicus, UniProt P04799); assay: CYP1A2 (EROD activity, 7-ethoxyresorufin O-deethylation) in rat liver microsomes; conditions: for Specific Activity, CYP1A2 (EROD activity): in the presence of 100 µM sesquiterpene, control 22.8 ± 0.1
T1 construct: Frozen liver (both rat and human) was thawed; from tissue; host or cells: rat liver microsomal fraction
T1 sequence (P04799 1-513): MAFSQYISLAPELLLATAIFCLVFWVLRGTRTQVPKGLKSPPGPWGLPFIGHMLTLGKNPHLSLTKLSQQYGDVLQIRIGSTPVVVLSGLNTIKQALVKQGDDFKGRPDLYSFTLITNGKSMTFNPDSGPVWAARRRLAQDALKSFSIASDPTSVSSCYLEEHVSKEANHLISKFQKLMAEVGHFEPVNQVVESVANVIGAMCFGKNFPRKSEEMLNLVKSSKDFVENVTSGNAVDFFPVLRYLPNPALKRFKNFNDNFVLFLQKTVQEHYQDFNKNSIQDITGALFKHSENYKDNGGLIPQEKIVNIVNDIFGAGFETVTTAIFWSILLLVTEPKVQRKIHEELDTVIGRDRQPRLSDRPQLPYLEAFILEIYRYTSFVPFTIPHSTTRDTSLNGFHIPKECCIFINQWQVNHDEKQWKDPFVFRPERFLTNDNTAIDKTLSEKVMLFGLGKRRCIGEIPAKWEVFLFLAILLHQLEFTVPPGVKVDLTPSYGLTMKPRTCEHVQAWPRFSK
Method: as §1, §2, §3, §4, §5, §6, §7

[3] = target: T2, AKR1A (Homo sapiens, UniProt P14550); assay: AKR1A activity in human liver subcellular fraction; conditions: 100 µM sesquiterpene, control 8.45 ± 0.90
T2 construct: Frozen liver (both rat and human) was thawed; from tissue; host or cells: human liver cytosolic fraction
T2 sequence (P14550 1-325): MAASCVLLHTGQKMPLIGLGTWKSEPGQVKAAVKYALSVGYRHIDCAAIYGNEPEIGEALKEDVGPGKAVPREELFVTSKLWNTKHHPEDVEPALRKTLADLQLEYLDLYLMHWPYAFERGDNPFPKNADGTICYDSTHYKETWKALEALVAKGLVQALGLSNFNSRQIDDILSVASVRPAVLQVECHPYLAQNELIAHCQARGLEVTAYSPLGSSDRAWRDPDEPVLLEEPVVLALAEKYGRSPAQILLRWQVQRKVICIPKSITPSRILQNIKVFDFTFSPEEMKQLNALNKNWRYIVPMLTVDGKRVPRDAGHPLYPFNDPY
Method: as §1
(§8) The assays of all other enzymes were based on spectrophotometric detection of product formed or detection of decreasing substrate/cofactor levels using microplate reader Tecan Infinite M200 in cytosolic or microsomal fractions. Enzyme activities were determined using slight modifications of previously-published methods: carbonyl reducing enzymes (AKR1A, AKR1C, CBR1 [45], NQO1 [46]), UDP-glucuronosyltransferase (UGT [47]), sulfotransferase (SULT [48]), and cytosolic glutathione-S-transferase (GST [49]).
as §3, §4

[4] = tested on: AKR1C; assay: AKR1C activity in rat liver subcellular fraction; conditions: 100 µM sesquiterpene, control 14.8 ± 1.8
Method: as §1, §8, §3, §4

[5] = tested on: GST; assay: GST activity in human liver subcellular fraction; conditions: 100 µM sesquiterpene, control 223 ± 19
Method: as §1, §8, §3, §4

Structure (SMILES)	Specific Activity, CYP2B/3A (BROD activity) ([1]; human liver microsomes)	inhibition at 5 µM [1]	IC50 ([1]; human liver microsomes)	IC50 ([2]; rat liver microsomes)	Specific Activity, CYP1A2 (EROD activity) ([2]; rat liver microsomes)	Specific activity, AKR1A [3]	Specific activity, AKR1C [4]	Specific activity, GST [5]	K’M ([1]; human liver microsomes, benzyloxyresorufin 0.5–5.0 µM in the presence of TNER 5 µM, KM without TNER 0.93 ± 0.22)	V’MAX ([1]; human liver microsomes, benzyloxyresorufin 0.5–5.0 µM in the presence of TNER 5 µM, VMAX without TNER 2.27 ± 0.17)	type of inhibition, BROD activity ([1]; human microsomes, 5 µM TNER, benzyloxyresorufin 0.5–5.0 µM)	Ki ([2]; rat liver microsomes, EROD activity)	K’M ([2]; rat liver microsomes, ethoxyresorufin 0.5–5.0 µM in the presence of TNER 5 µM, KM without TNER 1.64 ± 0.45)	V’MAX ([2]; rat liver microsomes, ethoxyresorufin 0.5–5.0 µM in the presence of TNER 5 µM, VMAX without TNER 4.32 ± 0.47)	type of inhibition, CYP1A2 (EROD) ([2]; rat microsomes, 5 µM TNER, ethoxyresorufin 0.5–5.0 µM)
CC(C)=CCC/C(C)=C/CC/C(C)=C/CO [FAR, farnesol]	0.033 ± 0.004 pmol/mg/min	85%	1.78 µM	16.1 µM	1.55 ± 0.02 pmol/mg/min	7.62 ± 0.30 nmol/mg/min	14.9 ± 1.5 nmol/mg/min	181 ± 13 nmol/mg/min							
C=CC(C)(O)CC/C=C(\C)CCC=C(C)C (stereo not drawn) [TNER, trans-nerolidol]	0.188 ± 0.005 pmol/mg/min	68%	2.4 µM	4.38 µM	1.53 ± 0.03 pmol/mg/min	6.75 ± 0.22 nmol/mg/min	14.8 ± 1.6 nmol/mg/min	235 ± 13 nmol/mg/min	0.94 ± 0.39 µM	0.74 ± 0.10 nM/min	non-competitive	4.68 ± 0.66 µM	1.89 ± 0.49 µM	2.21 ± 0.24 nM/min	non-competitive
C=CC(C)(O)CC/C=C(/C)CCC=C(C)C (stereo not drawn) [CNER, cis-nerolidol]	0.168 ± 0.007 pmol/mg/min	71%	1.32 µM	5.7 µM	2.16 ± 0.04 pmol/mg/min	6.88 ± 0.29 nmol/mg/min	14.6 ± 2.1 nmol/mg/min	209 ± 10 nmol/mg/min							
